According to patent US9126980B2, “Compounds for inhibiting the interaction of BCL2 with binding partners” (Novartis AG, priority 2011, dated 2015):
Like-named read-outs stand apart in the source and are kept apart here.

Experiments:
[1] = molecular target: BCL-2 binding to biotinylated BAD peptide (Homo sapiens (Human), UniProt P10415); assay: SPR (Biacore) solution inhibition assay, BCL-2 binding to BAD peptide surface; conditions: read-out: BCL2_SPR IC50 BAD
Description: (§1) The present method includes utility of a Surface plasmon resonance (SPR)-based biosensor (Biacore™′ GE Healthcare, Uppsala, Sweden) to characterize BCL-2 inhibitors.
(§2) Biacore™ utilizes the phenomenon of surface plasmon resonance (SPR) to detect and measure binding interactions. In a typical Biacore experiment, one of the interacting molecules (ligand) is immobilized on a flexible dextran matrix while the interacting partner (analyte) is allowed to flow across that surface. A binding interaction results in an increase in mass on the sensor surface and a corresponding direct change in the refractive index of the medium in the vicinity of the sensor surface. Changes in refractive index or signal are recorded in resonance units (R.U.) Signal changes due to association and dissociation of complexes are monitored in a non-invasive manner, continuously and in real-time, the results of which are reported in the form of a sensorgram.
(§3) The SPR assay is configured to examine solution inhibition of BCL-2 binding to peptide derivatized sensor surfaces to generate IC50 values as a measure of inhibitor potency.
(§4) Solution Inhibition Assay Format:
(§5) Biacore™ A100 (GE Healthcare, Uppsala, Sweden) was used to conduct all experiments reported herein. Sensor surface preparation and all interaction analyses experiments were performed at 25° C. Reagents were purchased from GE Healthcare. Running buffer containing 10 mM Hepes, pH7.4, 150 mM sodium chloride, 1.25 mM Dithiothreitol, 3% Dimethyl sulfoxide and 0.05% polysorbate 20 were utilized throughout all analyses.
(§6) Biotinylated BAK, BAD and NOXA peptides were diluted to 10 nM in running buffer and captured onto a sensor surface pre-derivatized with streptavidin (sensor chip SA) to peptide surface densities in the range 50-100 R.U. Peptide captured surfaces were blocked with 500 μM PEO2-Biotin.
(§7) Interaction analyses were performed by first equilibrating each sample within a 6 point three fold compound dilution series in the range […] with 56 nM BCL-2 for one hour during instrument start-up procedures. Protein compound mixtures were then injected over each peptide surface in parallel for 60 seconds at a flow-rate of 30 μL/min. 56 nM BCL-2 control samples were also prepared and run at regular intervals during the assay. Surface regeneration was performed at the end of each analysis cycle by two 30 second injections of 10 mM Glycine, pH 2.5, 1M Sodium Chloride, 0.05% polysorbate 20. Samples and control compound samples were run in duplicate and controls are also run at regular intervals during the assay to monitor surface and assay performance.
(§8) Data analyses are carried out using Biacore™ A100 evaluation software v1.1 to validate assay quality. Binding level report points were used relative to BCL-2 control samples to calculate % inhibition values for each compound protein mixture. […] The range of data shown in table 1 represents the high and low IC50 values obtained from multiple experiments.

[2] = molecular target: BCL-2 binding to biotinylated BAK peptide (Homo sapiens (Human), UniProt P10415); assay: SPR (Biacore) solution inhibition assay, BCL-2 binding to BAK peptide surface; conditions: read-out: BCL2_SPR IC50 BAK
Chain of BCL-2 binding to biotinylated BAK peptide (P10415 whole entry): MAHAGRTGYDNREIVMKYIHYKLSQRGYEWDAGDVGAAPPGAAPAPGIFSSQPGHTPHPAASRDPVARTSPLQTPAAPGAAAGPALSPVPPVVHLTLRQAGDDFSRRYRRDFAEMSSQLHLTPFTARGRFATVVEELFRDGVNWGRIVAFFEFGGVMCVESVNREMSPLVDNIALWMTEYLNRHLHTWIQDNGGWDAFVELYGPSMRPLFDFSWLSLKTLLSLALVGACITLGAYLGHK
Description: as §1, §2, §3, §4, §5, §6, §7, §8

[3] = high and low IC50 values from multiple experiments, 56 nM BCL-2, BAD peptide sensor surface, 25° C.
[4] = high and low IC50 values from multiple experiments, 56 nM BCL-2, BAK peptide sensor surface, 25° C.

Chain of BCL-2 binding to biotinylated BAD peptide (P10415 whole entry): as above

| SMILES | IC50 [1] [µM] | IC50 [2] [µM] | IC50 [1, 3] [µM] | IC50 [2, 4] [µM] |
| --- | --- | --- | --- | --- |
| CCCCN(CCCC)C(=O)c1cc(C)n(-c2ccc(NS(=O)(=O)c3ccccc3)cc2C(=O)N2Cc3ccccc3C[C@H]2CO)n1 (stereo in doubt) [Example 1, N,N-dibutyl-1-(2-(3-(hydroxymethyl)-1,2,3,4-tetrahydroisoquinoline-2-carbonyl)-4-(phenylsulfonamido)phenyl)-5-methyl-1H-pyrazole-3-carboxamide] | 0.629 to 0.756 | 0.474 to 0.564 | – | – |
| CCCCN(CCCC)C(=O)c1cc(C)n(-c2ccc(NS(C)(=O)=O)cc2C(=O)N2Cc3ccccc3C[C@H]2CO)n1 [Example 2] | 0.367 to 0.387 | 0.26 to 0.33 | – | – |
| CCCCN(CCCC)C(=O)c1cc(C)n(-c2ccc(NS(=O)(=O)C(C)C)cc2C(=O)N2Cc3ccccc3C[C@H]2CO)n1 [Example 3] | 0.126 to 0.127 | 0.0878 to 0.093 | – | – |
| CCCCN(CCCC)C(=O)c1cc(C)n(-c2ccc(NS(=O)(=O)c3ccc(-c4ccc(Cl)cc4)cc3)cc2C(=O)N2Cc3ccccc3C[C@H]2CO)n1 [Example 9] | – | – | > 16 | – |
| CCCCN(CCCC)C(=O)c1cc(C)n(-c2ccc(NS(=O)(=O)c3ccc(Oc4ccccc4C)cc3)cc2C(=O)N2Cc3ccccc3C[C@H]2CO)n1 [Example 10] | – | – | > 16 | 3.02 to 3.68 |
| CCCCN(CCCC)C(=O)c1cc(C)n(-c2ccc(NS(=O)(=O)c3ccccc3Cl)cc2C(=O)N2Cc3ccccc3C[C@H]2CO)n1 [Example 14] | – | – | – | 0.435 to 0.683 |
| CCCCN(CCCC)C(=O)c1cc(C)n(-c2ccc(NS(=O)(=O)c3cc(Cl)ccc3F)cc2C(=O)N2Cc3ccccc3C[C@H]2CO)n1 [Example 17] | – | – | – | 0.828 to 0.871 |
| CCCCN(CCCC)C(=O)c1cc(C)n(-c2ccc(NS(=O)(=O)c3ccc(NC(C)=O)c(Cl)c3)cc2C(=O)N2Cc3ccccc3C[C@H]2CO)n1 [Example 25] | – | – | 0.418 to 0.436 | 0.252 to 0.257 |
| CCCCN(CCCC)C(=O)c1cc(C)n(-c2ccc(NS(=O)(=O)c3ccc(CNC(=O)c4ccc(Cl)cc4)s3)cc2C(=O)N2Cc3ccccc3C[C@H]2CO)n1 [Example 30] | – | – | – | 2.28 to 2.51 |
